Reference: US12385042B2, “Cell-penetrating peptides” (VECTIOPEP OÜ, priority 2019, dated 2025)
Entries after “also recorded” stand apart in the source; their conditions may differ. Where a SMILES comes first, the peptide text is derived from it. Bridges are numbered along the chain shown (N, C = ends). Roman numbers before positions name the chains, in order. [ ]: non-standard residue; d: D form. The star is where a group is joined. Arachidoyl = CCCCCCCCCCCCCCCCCCCC(=O)*; Orn = NCCC[C@H](N)C(=O)O

Key:
[1] = tested on: CHO stably expressing green fluorescent protein (GFP); assay: GFP gene downregulation by CPP/siGFP complexes (lysate fluorescence, FACS, confocal); format: cell-based; conditions: for downregulation of GFP (average, cell lysate fluorescence): siGFP 100 nM
Description: (§1) For assessing the siRNA mediated RNAi, CHO-GFP or U87-luc2 cells (5×10^5 cells per well) were seeded on a 24-well plate a day prior to the experiment and grown in serum containing media. On experiment day, prior to adding pre-formed complexes ( 1/10th of the final volume per well), media was replaced with fresh serum containing medium.
(§2) For complex formation, peptide was mixed with luc2 siRNA (sense 5′-[…]-3′ (SEQ ID NO:7), antisense 5′-[…] 3′ (SEQ ID NO:8), Metabion, Germany) or with siRNA against GFP (5′-[…] (SEQ ID NO:9), 3′-[…] (SEQ ID NO:10)) in mQ water (pH 5.3-6.3) using peptide to siRNA molar ratios (MR is the ratio of peptide to siRNA) […] and incubated at RT for 1 h. For siLuc2, the final concentration in media was 25 nM and for siGFP 100 nM. Cells were co-incubated with complexes for 4 h (37° C., 5% CO2), thereafter fresh serum containing media was added and followed by further incubation (20 h for siLuc2 or 44 h for siGFP complexes). Luciferase gene downregulation was measured from cell lysates with Promega luciferase assay system (Promega, Sweden) in combination with GLOMAX 96 microplate luminometer equipped with GLOMAX 1.9.2 software (Promega). GFP was measured after treatment from cell lysates on black 96-well plates by measuring total fluorescence (Symergy MX, BioTek Instruments, USA equipped with Gen5 1.10 software). The results were normalized to the protein content of each sample (DC Protein Assay, BioRad, USA).
For flow cytometry analysis (FACS) analysis CHO-GFP cells were seeded and treated as described previously. After incubation, cells were washed with 1× PBS and detached from plates with trypsin-EDTA (0.25%), and re-suspended in PBS supplemented with FBS (5%) and transferred to transparent U-bottom 96-well plates. FACS was carried out with BD LSR II flow cytometer (BD Biosciences, San Jose, CA, USA) equipped with a 488 nm argon laser. Population of viable cells was determined from scatter plot: forward scattered plot (FSC) vs. side scattered light (SSC) plot. A minimum of 10,000 events from the viable cell population per sample were analyzed using BD FACS Diva software. Results are shown as the population with GFP signal lower than that of 0.1% of untreated cells.
For confocal microscopy 2×10^5 cells per chamber were seeded on NUNC 8-chamber plates. After treatment with complexes (25 ul of pre-formed CPP/siRNA complexes added to cells in 225 ul serum containing media), incubated (48 h) and GFP florescence images of cells were captured using confocal microscope Zeiss LSM 710 and excitation at 488 nm (493-616 filter).

[2] = tested on: U87 MG-luc2 human glioma cells, stably expressing luc2; assay: Luciferase gene downregulation by CPP/siRNA (siLuc2) complexes; format: cell-based; conditions: for Red (%) (reduction, based on remaining luminescence on U87 cells post-treatment): siRNA against luciferase
Description: as §1, §2
Luciferase activity was determined as described in previous paragraph.
For determination of pH dependency on the transfection efficiency, complexes were formed at MR30, incubated and diluted before addition to cells to obtain siRNA final concentration 10 nM in transfection media. HEPES buffer supplemented with 10% FBS was used as transfection media. Complexes were co-incubated with cells for 4 h and then media was replaced with cell growth media. After further 20 h incubation cells were lysed and analyzed as described previously.
The experiment was carried out in serum containing media (10% FBS). CPP/siRNA complexes were formed at different molar ratios with siRNA concentration kept constant (50 nM in transfection media). Luminescence from luciferin-luciferase reaction was measured at 24 hours post-treatment from cell lysate. Results were normalized to protein content and luminescence values from untreated cells (100%).

murine red blood cells = assay: Membrane activity assay on murine red blood cells: hemolysis; format: cell-based, mouse; conditions: for hemolytic activity of free peptide (in words): up to 10 uM
Description: For evaluation of membrane activity of peptides, hemolysis assay was used. For this whole blood was collected from mouse (adult, BALB/c) saphenous vein into a heparinized collection tube. Blood was centrifuged (2300× g, 15 min) to separate cells (red blood cells-RBC) from the plasma. RBCs were washed according to following procedures.
RBCs were washed with 10 ml 0.9% NaCl saline and centrifuged (600× g, 15 min). Supernatant was discarded after each centrifugation. This was repeated at least 3 times. RBCs were re-suspended in 5 ml saline and distributed equally to tubes and centrifuged (600× g, 15 min). The cells were washed and re-suspended in 2× PBS with the required pH (pH 5.5-7.5). The hemoglobin content in stocks was measured after lysis of cells with equal volume of 0.1% Triton X100 supplemented with 5% glucose. The cell suspension was diluted accordingly for each pH value to obtain similar concentration range of hemoglobin in stocks. To each 100 ul of peptide solution 100 ul of 10% glucose was added, mixed, and equal volume (200 ul) of RBC in 2× PBS were added and gently mixed. Peptide solution with RBCs was incubated at 37° C. for 1 h with gentle mixing (max 300 rpm) after which samples were centrifuged to pellet intact cells from the solution. Hemoglobin from lysed cells was determined from each sample from the supernatant on transparent 96-well plates by measuring the absorbance at 540 nm.
Controls were incubated in similar manner as samples. As a non-hemolysis control mQ supplemented with glucose (0%) was used and for hemolytic control 0.1% TritonX-100 with glucose (100%) was used (cells are suspended in 2× PBS before addition). Final percent was calculated as follows: […]
For hemolytic concentration determination 2× PBS at pH 7.5 was used for incubation and 1× PBS at pH 7.5 was used for washing. Everything else is as described in previous paragraph.

[3] = Fluorescent dye (PicoGreen) intercalation and heparin displacement assay of CPP/siRNA complexes; format: physicochemical; conditions: for stability of complexes to heparin displacement (in words): complexes pre-formed at MR30
Description: Complexation of siRNA and CPPs was assessed by Quant-iT™ PicoGreen® (PG) (Thermo Fisher Scientific, USA) assay in mQ water. Complexes were prepared as described previously, following addition of diluted PG. For detection, complexes (⅕ of volume), water (3/5) and PG (1/5) working dilution was incubated for 5 minutes and fluorescence was measured by fluorimeter (λex=492 nm, λem=535 nm) (SynergyMx, BioTek). For heparin displacement, instead of water, heparin salt solution at different concentrations were used and complexes incubated at 37° C. for 30 min before addition of PG dilution. Complex formation was also confirmed by gel electrophoresis (details in section 2.11).

Proteinase K = biological target: T1, Proteinase K (Parengyodontium album, UniProt P06873); assay: Stability of CPP/siRNA complexes to degradation by Proteinase K; format: physicochemical; conditions: Proteinase K >14.4 U per well
T1 construct: purchased Thermo Scientific, USA
Description: To assess protection of siRNA from enzymatic degradation, after addition of PG dilution and initial measurement to set a starting point, Proteinase K (Thermo Scientific, USA) was added (>14 U/ml, 20 ul of mixture per well containing dilution of 120 ul of enzyme in 1 ml), co-incubated with complexes and fluorescence was measured over a 10 h period.

organs of BALB/c mice = assay: Gene delivery in vivo (CPP/pDNA, i.v., organ luminescence); parameters: species or system mouse; conditions: CR2 or CR4, 50 μg or 20 μg pDNA, 24 h
Description: For in vivo pDNA delivery studies BALB/c mice were used. Each animal received a single […] intravenous (i.v.) injection of the complexes at CR2 or CR4. Two doses of pDNA […] were used. After 24 hr, the mice were sacrificed using cervical dislocation, and whole organs were harvested and snap-frozen on dry ice. The organs were homogenized, and luminescence was measured.

CHO cells = assay: pDNA (p-CMV-Luc2) transfection with CPP/pDNA complexes; format: cell-based; conditions: serum containing medium, CR1 to CR4, 24 h
Description: For the pDNA transfection experiment, CPP/pDNA nanoparticles were prepared by mixing […] of plasmid (p-CMV-Luc2) with the peptide in MQ water. Charge ratios from 1 to 4 (CR, equivalent to the nitrogen-to-phosphate ratio) were used. 50,000 CHO cells were seeded 24 hr before the experiment into 24-well plates, treated with complexes for 4 h in serum-containing medium, incubated for additional 20 hr, lysed and luminescence was measured.

T1 sequence (P06873 106-384): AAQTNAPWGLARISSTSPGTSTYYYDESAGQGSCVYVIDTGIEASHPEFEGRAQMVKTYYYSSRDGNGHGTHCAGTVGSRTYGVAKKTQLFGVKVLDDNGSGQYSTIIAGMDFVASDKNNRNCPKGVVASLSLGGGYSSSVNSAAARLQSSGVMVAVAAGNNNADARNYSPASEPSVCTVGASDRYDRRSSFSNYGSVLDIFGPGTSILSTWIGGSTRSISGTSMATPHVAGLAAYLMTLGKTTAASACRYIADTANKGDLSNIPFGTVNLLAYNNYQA

Compound | cells with downregulated reporter gene (GFP signal below threshold), FACS ([1]; CHO-GFP, CPP/siGFP complexes) | GFP signal in confocal images ([1]; live cells treated with CPP/siGFP complexes) | downregulation of GFP (average, cell lysate fluorescence) [1] | luciferase downregulation efficiency (in words) ([2]; CPP/siRNA complexes, comparison between CPPs) | Red (%) (reduction, based on remaining luminescence on U87 cells post-treatment) ([2]; CPP/siRNA complexes) | downregulation of reporter gene on cells in buffer, pH dependence ([2]; HEPES buffer pH 6.0 vs 7.4, siRNA 10 nM) | IC50 ([2]; complexes formed at MR30, average, read-out: IC50 (siRNA concentration), luciferase downregulation) | hemolytic activity of free peptide (in words) (murine red blood cells) | stability of complexes to heparin displacement (in words) [3] | stability of complexes to proteinase K (in words) (Proteinase K) | pH dependent hemolytic activity (in words) (murine red blood cells; peptide 0.75 uM, buffer pH 5.5-7.5) | accessibility of siRNA in complexes (dye intercalation) ([3]; MR30, no heparin) | reporter gene expression in organs after i.v. CPP/pDNA (in words) (organs of BALB/c mice) | pDNA delivery / gene expression in vitro (in words) (CHO cells)
CCCCCCCCCCCCCCCCCC(=O)N[C@@H](C)C(=O)NCC(=O)N[C@@H](Cc1ccc(O)cc1)C(=O)N[C@@H](CC(C)C)C(=O)N[C@@H](CC(C)C)C(=O)NCC(=O)N[C@@H](CCCCNC(=O)[C@H](CCCCNC(=O)[C@H](CCCCNC(=O)CCC(=O)NCCN(C)CCNc1ccnc2cc(C(F)(F)F)ccc12)NC(=O)CCC(=O)NCCN(C)CCNc1ccnc2cc(C(F)(F)F)ccc12)NC(=O)[C@H](CCCCNC(=O)CCC(=O)NCCN(C)CCNc1ccnc2cc(C(F)(F)F)ccc12)NC(=O)CCC(=O)NCCN(C)CCNc1ccnc2cc(C(F)(F)F)ccc12)C(=O)N[C@H](C(=O)N[C@@H](CC(N)=O)C(=O)N[C@@H](CC(C)C)C(=O)N[C@@H](CCCCN)C(=O)N[C@@H](C)C(=O)N[C@@H](CC(C)C)C(=O)N[C@@H](C)C(=O)N[C@@H](C)C(=O)N[C@@H](CC(C)C)C(=O)N[C@@H](C)C(=O)N[C@@H](CCCCN)C(=O)N[C@@H](CCCCN)C(=O)N[C@H](C(=O)N[C@@H](CC(C)C)C(N)=O)[C@@H](C)CC)[C@@H](C)CC [PF6, reference compound] | approximately 70% | detected GFP signal was the lowest | highest | most efficient peptides even at low MRs | 84% | pH-dependent | 10.4 nM | most hemolytic | only about a half of that in NF55/siRNA complexes | significantly lower stability to longer exposure to enzyme |  |  |  | 
CCCCCCCCCCCCCCCCCCCC(=O)N[C@@H](Cc1c[nH]cn1)C(=O)N[C@@H](Cc1c[nH]cn1)C(=O)N[C@@H](Cc1c[nH]cn1)C(=O)N[C@@H](Cc1c[nH]cn1)C(=O)N[C@@H](Cc1c[nH]cn1)C(=O)N[C@@H](Cc1c[nH]cn1)C(=O)NCC(=O)NCCC[C@H](N)C(=O)N[C@H](C(=O)N[C@@H](CC(C)C)C(=O)N[C@@H](CC(C)C)C(=O)N[C@@H](CCCCN)C(=O)N[C@@H](C)C(=O)N[C@@H](CC(C)C)C(=O)N[C@@H](CCCCN)C(=O)N[C@@H](C)C(=O)N[C@@H](CC(C)C)C(=O)N[C@@H](C)C(=O)N[C@@H](CCCCN)C(=O)N[C@@H](C)C(=O)N[C@H](C(=O)N[C@@H](CC(C)C)C(N)=O)[C@@H](C)CC)[C@@H](C)CC [NF705] (I: H-[Orn]ILLKALKALAKAIL-NH2 / II: Arachidoyl-HHHHHHG; amide I:1-II:C) |  |  | lower efficiency than H6-C20 |  | 52% |  |  | significantly higher | significantly higher stability to heparin displacement than NF70 peptide and even NF72 peptide | formed the most stable complexes with siRNA resistant to proteinase K | markedly hemolytic already at pH 7.5 | low accessibility of siRNA |  | 
HYHHGO^eILLKALKALAKAIL [NF725, group H3; C18 saturated fatty acid on N-terminus; C-terminally amidated] |  |  |  |  | 60% |  |  |  |  |  |  |  | high gene expression level in liver; also recorded: higher at CR4 than CR2 | promising vectors for pDNA transfection
